In patent publication US20250282768A1 (Janssen Pharmaceutica NV, priority 2022, published 2025):

tested on: p-IKKa levels in L363 (NIK translocated multiple myeloma) cells; assay: Assay 2: Effect of compounds on p-IKKa levels in L363 (NIK translocated multiple myeloma) cells; type: cell-based; settings: Homo sapiens, L-363, 6 h, read-out: Assay 2 IC50 (nM), p-IKKa (Ser 176/180) in BAFF stimulated L363 cells with MG132, 6 h; average if tested more than once
Outline: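 Read-out is p-IKKa Ser176/180 by AlphaLISA SureFire in lysates. Cells were BAFF-primed (250 ng/ml) overnight or left unstimulated, then exposed 6 h at 37 °C to compound with MG132 (10 μM), 0.3% DMSO. IC50 from sigmoidal curve fit, normalized between stimulated and unstimulated controls.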

Compound | IC50
CN1CC[C@@](O)(c2cc(-c3cccc(-c4ccnc(NC[C@@H]5C[C@@H]5F)n4)n3)no2)C1=O [Example 345, (R)-3-(3-(6-(2-((((cis)-2-Fluorocyclopropyl)methyl)amino)pyrimidin-4-yl)pyridin-2-yl)isoxazol-5-yl)-3-hydroxy-1-methylpyrrolidin-2-one] | 50 to 500 nM
C[C@@H](CF)Nc1nccc(-c2cccc(-c3cc([C@]4(O)CCN(C)C4=O)on3)n2)n1 [Example 348, (R)-3-(3-(6-(2-(((S)-1-Fluoropropan-2-yl)amino)pyrimidin-4-yl)pyridin-2-yl)isoxazol-5-yl)-3-hydroxy-1-methylpyrrolidin-2-one] | 50 to 500 nM
CN1CC[C@@](O)(c2cc(-c3cccc(-c4ccnc(N[C@H]5C[C@H](F)C5)n4)n3)no2)C1=O [Example 349, (R)-3-(3-(6-(2-(((1r,3R)-3-Fluorocyclobutyl)amino)pyrimidin-4-yl)pyridin-2-yl)isoxazol-5-yl)-3-hydroxy-1-methylpyrrolidin-2-one] | 50 to 500 nM
CN1CC[C@@](O)(c2cc(-c3cccc(-c4ccnc(NC5CC56CCOC6)n4)n3)no2)C1=O (stereo partly drawn) [Example 350, (3R)-3-(3-(6-(2-((5-Oxaspiro[2.4]heptan-1-yl)amino)pyrimidin-4-yl)pyridin-2-yl)isoxazol-5-yl)-3-hydroxy-1-methylpyrrolidin-2-one] | > 500 nM
CO[C@H]1C[C@@H](Nc2nccc(-c3cccc(-c4cc([C@]5(O)CCN(C)C5=O)on4)n3)n2)C1 [Example 351, (R)-3-Hydroxy-3-(3-(6-(2-(((1s,3S)-3-methoxycyclobutyl)amino)pyrimidin-4-yl)pyridin-2-yl)isoxazol-5-yl)-1-methylpyrrolidin-2-one] | 50 to 500 nM
CCO[C@@H]1COC[C@H]1Nc1nccc(-c2cccc(-c3cc([C@]4(O)CCN(C)C4=O)on3)n2)n1 [Example 352, (R)-3-(3-(6-(2-(((trans)-4-Ethoxytetrahydrofuran-3-yl)amino)pyrimidin-4-yl)pyridin-2-yl)isoxazol-5-yl)-3-hydroxy-1-methylpyrrolidin-2-one] | 50 to 500 nM
C[C@H](CF)Nc1nccc(-c2cccc(-c3cc([C@]4(O)CCN(C)C4=O)on3)n2)n1 [Example 353, (R)-3-(3-(6-(2-(((R)-1-Fluoropropan-2-yl)amino)pyrimidin-4-yl)pyridin-2-yl)isoxazol-5-yl)-3-hydroxy-1-methylpyrrolidin-2-one] | 50 to 500 nM
CO[C@@H]1COC[C@H]1Nc1nccc(-c2cccc(-c3cc([C@]4(O)CCN(C)C4=O)on3)n2)n1 [Example 354, (R)-3-Hydroxy-3-(3-(6-(2-(((3R,4S)-4-methoxytetrahydrofuran-3-yl)amino)pyrimidin-4-yl)pyridin-2-yl)isoxazol-5-yl)-1-methylpyrrolidin-2-one] | 50 to 500 nM
CO[C@H](C)CNc1nccc(-c2cccc(-c3cc([C@]4(O)CCN(C)C4=O)on3)n2)n1 [Example 356, (R)-3-Hydroxy-3-(3-(6-(2-(((R)-2-methoxypropyl)amino)pyrimidin-4-yl)pyridin-2-yl)isoxazol-5-yl)-1-methylpyrrolidin-2-one] | 50 to 500 nM
CN1CC[C@@](O)(c2cc(-c3cccc(-c4ccnc(N[C@@H]5CCCC[C@@H]5O)n4)n3)no2)C1=O [Example 357, (R)-3-Hydroxy-3-(3-(6-(2-(((1R,2S)-2-hydroxycyclohexyl)amino)pyrimidin-4-yl)pyridin-2-yl)isoxazol-5-yl)-1-methylpyrrolidin-2-one] | > 500 nM
CN1CC[C@@](O)(c2cc(-c3cccc(-c4ccnc(NC[C@H]5CCO5)n4)n3)no2)C1=O [Example 358, (R)-3-Hydroxy-1-methyl-3-(3-(6-(2-((((R)-oxetan-2-yl)methyl)amino)pyrimidin-4-yl)pyridin-2-yl)isoxazol-5-yl)pyrrolidin-2-one] | > 500 nM
CN1CC[C@@](O)(c2cc(-c3cccc(-c4ccnc(NCCC(F)F)n4)n3)no2)C1=O [Example 359, (R)-3-(3-(6-(2-((3,3-Difluoropropyl)amino)pyrimidin-4-yl)pyridin-2-yl)isoxazol-5-yl)-3-hydroxy-1-methylpyrrolidin-2-one] | 50 to 500 nM
